The series can be described thus: Osmotic pressure of saturated solutions by vapor pressure osmometer. The note with it: saturated solution in water at 37° C.; Model 320B Vapor Pressure Osmometer. The format is physicochemical. The procedure:
The osmagent is initially present in excess and it can be any physical form such as particle, crystal, pellet, tablet, strip, film or granule. […] In the table, the osmotic pressure π, is in atmospheres, ATM. The osmotic pressure is measured in a commercially available osmometer that measures the vapor pressure difference between pure water and the solution to be analyzed, and according to standard thermodynamic principles, the vapor pressure ratio is converted into osmotic pressure difference. […] The osmometer used for the present measurements is identified as Model 320B, Vapor Pressure Osmometer, manufactured by Hewlett Packard Co., Avondale, Pa.

The source of these data is US6773721B1, “Osmotic caplet” (ALZA Corporation, priority 1992, dated 2004).

Turning to `O=C(CO)[C@@H](O)[C@H](O)[C@H](O)CO` [Fructose], the “OSMOTIC PRESSURE” value came to 355 ATM.

Regarding `OC[C@@H](O)[C@@H](O)[C@H](O)[C@H](O)CO` [Mannitol], the “OSMOTIC PRESSURE” value is 38 ATM.

As for `[Cl-].[K+]` [Potassium Chloride], the “OSMOTIC PRESSURE” value is 245 ATM.

Consider `O=S(=O)([O-])[O-].[K+].[K+]` [Potassium Sulfate], for which the “OSMOTIC PRESSURE” value was 39 ATM.

As to `[Cl-].[Na+]` [Sodium Chloride], the “OSMOTIC PRESSURE” value is listed as 356 ATM.

With `O=P([O-])([O-])O.[Na+].[Na+]` [Sodium Phosphate Dibasic Anhydrous], the “OSMOTIC PRESSURE” value is given as 29 ATM.

As to `O.O.O.O.O.O.O.O=P([O-])([O-])O.[Na+].[Na+]` [Sodium Phosphate Dibasic.7H2O], the “OSMOTIC PRESSURE” value was determined as 31 ATM.

On to `O.O.O.O.O.O.O.O.O.O.O.O.O=P([O-])([O-])O.[Na+].[Na+]` [Sodium Phosphate Dibasic.12H2O], for which the “OSMOTIC PRESSURE” value is on record as 31 ATM.

`O.O.O.O.O.O.O.O.O.O.O.O.O=P([O-])([O-])[O-].[Na+].[Na+].[Na+]` [Sodium Phosphate Tribasic.12H2O]: the “OSMOTIC PRESSURE” value is 36 ATM.

As to Sodium Phosphate Monobasic.H2O, the “OSMOTIC PRESSURE” value is 28 ATM.
